Paper PMC8213385, “Development of a Fluorescent Assay to Search New Drugs Using Stable tdTomato-Leishmania, and the Selection of Galangin as a Candidate With Anti-Leishmanial Activity” (Frontiers in Cellular and Infection Microbiology, 2021)

How the values were obtained:
[1] = Cytotoxicity in macrophage cell line by the MTT method (colorimetric); type: cell-based; details: mouse, Raw 264.7 macrophage cell line; Raw 264.7, MTT, 48 h; read-out: Colorimetric CC50 μM (SE)
Protocol: The cytotoxicity against a cell line of macrophages (Raw 264.7) of GAL, MO, FI, RU, EGCG, PE, MI and MA was determined by the MTT method. Cells (3.3 x 10^5/ml) cells were treated with different concentrations of each compound during 48 h at 37°C, 5% CO2. The controls were incubated with RPMI-1640 medium. Briefly, 50 µl of MTT (2 mg/mL) was added to each well and, after 4 h of incubation at 37°C, 5% CO2, the reaction was stopped dissolving the formazan crystals with 100 µl/well of dimethyl sulfoxide. The relative amount of formazan produced by viable macrophages was determined using a spectrophotometer at 595 nm. The percentage of viable cells was calculated according to the formula (OD treated culture−OD blank)/(OD control−OD blank) ×100 as was described previously ([Adinehbeigi et al., 2017]). The cytotoxicity concentration 50% (CC50) was calculated for each compound.

[2] = system: Raw 264.7 macrophages infected with L. amaz/tc3; experiment: Cytokine production (IL-12p70, IL-10) by macrophages, ELISA of culture supernatant; type: cell-based; details: 20 µM, 48 h
Protocol: Then, the culture supernatant was recovered and maintained at -80°C until use. The culture supernatant concentrations of IL-12p70 and IL-10 (BD Biosciences, San Diego, USA) were determined by ELISA following the specifications of the supplier. Each condition was performed in quadruplicate.

[3] = system: promastigotes of L. (L.) donovani; parameters: method as in Kaur et al., 2010; details: GAL isolated from Alpinia galanga rhizomes ref Kaur et al., 2010; read-out: IC50 against promastigotes of L. (L.) donovani; cited from earlier work
[4] = system: promastigotes of L. amaz/tc3; experiment: Fluorescence assay against promastigotes of L. amaz/tc3 (tdTomato); type: cell-based, Leishmania (Leishmania) amazonensis; details: Leishmania, 48 h, read-out: IC50 against promastigotes of L. amaz/tc3
Protocol: Then, we evaluated the efficacy of MI, a reference drug for leishmaniasis by the fluorescence method (L. amaz/tc3) and by the conventional method based in counting the parasite at the optic microscope (L. amaz/wt). Mid-log promastigotes of L. amaz/tc3 and L. amaz/wt were harvest and seeded (1 x 10^6/0.1 ml) with different concentrations of MI (40 to 0.6 µg/ml) in a 96-well plate at 23°C. Promastigotes cultured only in medium were the controls. Parasite viability was determined by measuring the fluorescence of L. amaz/tc3 in a plate reader (Tecan, Männedorf, Switzerland) and by counting the mobile promastigotes in a Neubauer chamber at the optic microscope (40x) (Leitz Wetzlar, Germany) at 48 h of incubation with MI. Viability was calculated with the formula: ViabilityL.amaz/tc3 =FLt/FLc×100 where, FLt is the fluorescence of treated culture, and FLc is the fluorescence of control; ViabilityL.amaz/wt=NPt/NPc×100 where, NPt is the number of promastigotes in the treated culture, and NPc is the number of promastigotes in control culture. Then, the 50% inhibitory concentration (IC50) of MI was estimated.
After fluorescence assay validation as it is described above, the method was used to evaluate in vitro the flavonoids anti-leishmanial activity. Mid-log promastigotes of L. amaz/tc3 were harvest and seeded with different concentrations of GAL (1,200 to 18.75 µM), MO, FI and RU (40 to 1.25 µM), and EGCG (300 to 18.75 µM). Positive control were promastigotes treated with PE (4 to 0.25 µM), the negative control were promastigotes cultured with medium only, and the blank was the culture medium. The parasites were incubated at 23°C for 48 h. The anti-leishmanial activity was determined by measuring the parasite fluorescence in a plate reader (Tecan, Männedorf, Switzerland). The viability was estimated as was described above for MI (fluorescent assay). The IC50 was calculated for each compound.

[5] = system: intracellular amastigotes of L. amaz/tc3; experiment: Fluorescence assay in the macrophage-amastigote model (Raw 264.7 infected with L. amaz/tc3); type: cell-based, Leishmania (Leishmania) amazonensis
Protocol: Furthermore, the efficacy of MI was also determined against intracellular amastigotes of L. amaz/tc3 and L. amaz/wt. Raw 264.7 macrophages were plated in 96-well black plate (5 x 10^4 cells/well) and in eight well Lab-Tek tissue culture slides (6.6 x 10^4 cells/ml) (Nunc, USA). The cells were infected with promastigotes in stationary phase of L. amaz/tc3 and L. amaz/wt (1:20 ratio) at 33°C, 5% CO2. After incubation, the infected macrophages were washed to remove non-internalized parasites with PBS plus P-S. New RPMI-1640 medium with different concentrations of MI (20 to 0.62 µg/ml) was added to each well and incubated at 33°C, 5% CO2 during 48 h. The anti-leishmanial activity of MI was determined by measuring the fluorescence of intracellular amastigotes of L. amaz/tc3 in a plate reader (Tecan, Männedorf, Switzerland). The viability was calculated as mentioned above, and the IC50 was also estimated. Simultaneously, the leishmanicidal activity of MI against L. amaz/wt was determined by the microscopy test. In this case, the infected macrophages were stained with Diff Quik (Biopur S.R.L., Rosario, Argentina) and the number of intracellular amastigotes was determined in 200-500 macrophages in treated and control cultures per slide under the immersion lens microscope (100x) (Leitz Wetzlar, Germany). The infection index (II) and the % infectivity (I) were calculated by the following formulas: II = IM × A, where IM= infected macrophages (%), A= number of amastigotes per infected macrophages; and I(%)=IIT/IIc×100, where IIT= infection index in treated cultures, IIC= infection index in control cultures ([Ayres et al., 2008]). The IC50 of MI was calculated.
The flavonoids anti-leishmanial activity was also evaluated against intracellular amastigotes. Macrophages (Raw 264.7) were plated in 96-well black plate (5 x 10^4 cell/well) and infected with promastigotes in stationary phase of L. amaz/tc3 (1:20 ratio) at 33°C, 5% CO2. After incubation, the infected macrophages were washed to remove non-internalized parasites with PBS plus P-S. New RPMI-1640 medium with different concentrations of GAL (30 to 3.75 µM), MO (300 to 37.5 µM), FI (65 to 8.12 µM), RU (300 to 37.5 µM) and EGCG (30 to 7.5 µM) was added to each well and incubated at 33°C, 5% CO2 for 48 h. Infected cells treated with Ma (136.6 to 34.1 µM) were the positive controls, and cells incubated only with RPMI-1640 were the negative control. The infected macrophages were incubated during 48 h at 33°C, 5% CO2. After treatment, the fluorescence of intracellular amastigotes of L. amaz/tc3 was measured in a plate reader (Tecan, Männedorf, Switzerland). The viability was determined as was described for MI (fluorescent assay). The selectivity index (SI) (CC50 for macrophages/IC50 for Leishmania) was calculated.

Structure (SMILES): O=c1c(O)c(-c2ccccc2)oc2cc(O)cc(O)c12 [GAL, Galangin]
- CC50 at 48 h [1]: 22.8 µM
- IL-10 concentration in culture supernatant ([2]; between treated groups): did not show significant differences
- IL-12 p70 in culture supernatant, mean (range) ([2]; infected macrophages, infected non-stimulated controls 72.11 pg/ml, p < 0.01): 232.2 pg/mL
- IC50 [3]: 100 µM
- IC50 [4]: 53.1 µM
- Fluorescence Inhibition (%) of amastigotes ([5]; 15 µM, 48 h): 29%
- inhibition at 15 µM ([5]; Leishmania, RAW264.7, 48 h, read-out: Fluorescence Inhibition (%) of amastigotes, 15 µM, 48 h): 29 to 31%
